A short description of this series: gradient 5% acetonitrile 3 min, to 50% in 2 min, to 85% in 15 min, held 3 min, 100 µL/min. The note with it: column: Zorbax Extend-C18 2.1 x 50 mm; eluents: water / acetonitrile, 0.1% formic acid. The essentials: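 Over 3 months, pure standards in mixtures of ~100 molecules were run by HPLC coupled to a quadrupole time-of-flight mass spectrometer in positive and negative ionization mode. The column was a Zorbax Extend-C18 (2.1 × 50 mm, 1.8 μm) at 100 μL/min, eluted with water and acetonitrile each holding 0.1% formic acid, with 40 μL dead and 900 μL dwell volumes. Retention time was determined from adduct peaks chosen by software and checked manually.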
`O=C(O)c1nnn(-c2cccc(F)c2)c1C(F)(F)F` came in with an RP-LC retention time of 744 s.
Compound `COc1cccc(N2CCN(c3cc(SCC(=O)NCc4ccccc4)ncn3)CC2)c1` showed an RP-LC retention time of 891 s.
For the compound `Cc1ccc(CCNC(=O)C2CCCN(c3nnc(C)c4c(C)n(-c5ccc(C)cc5)nc34)C2)cc1` (stereo not given), the RP-LC retention time amounted to 815 s.
The figure for `Cc1ccc(-c2noc(Cc3nnc(-c4ccccc4)o3)n2)cc1C` is 1100 s.
The figure for `CCOc1ccc(CC(=O)N2CCN(c3ccc(NC(=O)c4ccccc4)nn3)CC2)cc1` is 667 s; for `O=C(Cc1ccc([N+](=O)[O-])cc1)NCc1ccc2[nH]c3c(c2c1)CCCC3` it is 849 s.
`Cc1ccc2c(C)nc(NC3=NCN(CC4CCCO4)CN3)nc2c1` (stereo not given): the RP-LC retention time amounted to 660 s.
In turn, `Cc1nn(C(C)C(=O)NCc2ccccn2)c(=O)c2c(C)n(-c3ccccc3)nc12` (stereo not given) returned an RP-LC retention time of 638 s.
Compound `CCCC(=O)Nc1ccc(-n2cnc(C(=O)NCC)c2)nc1` returned an RP-LC retention time of 634 s.
In turn, `COc1ccc(-c2nnc(-c3cccnc3N3CCN(C(=O)c4ccc(C#N)cc4)CC3)o2)cc1` displayed an RP-LC retention time of 874 s.
The figure for `O=C(c1cccs1)N1CCN(c2cnn3c(C4CC4)nnc3c2)CC1` is 625 s; for `COc1cc(CNC(=O)COc2ccc(NC(=O)C3CC3)cn2)cc(OC)c1` it is 713 s; for `CCN1C(=O)C2CCC(=O)N2c2ccc(C(=O)NC3CCCC3)cc21` (stereo not given) it is 692 s.
The figure for `Cn1c(=O)n(C)c2cc(S(=O)(=O)c3ccc(F)cc3)c(NC(=O)c3ccccc3F)cc21` is 882 s.
Next, `CC(=O)N(C1CC1)C1CCOC2(CCN(C(=O)Cc3c(C)noc3C)CC2)C1` (stereo not given): 659 s; `CCNC(=O)C1CCCN(c2nc3ncn(CC(=O)Nc4ccc(F)c(Cl)c4)c(=O)c3s2)C1` (stereo not given): 698 s; `CN1CCC(NC(=O)c2ccc(-n3cc(CNC(=O)C4CCC4)cn3)cc2)CC1`: 585 s.
For the compound `CCN(C(=O)C1CCCN(c2ncnc3c2nc2n3CCCCC2)C1)c1ccccc1C` (stereo not given), the RP-LC retention time came out at 890 s.
The figure for `CCN(c1ccccc1)S(=O)(=O)c1cc(-c2[nH]ncc2C(=O)N(C)C)oc1C` is 739 s; for `Cn1cc(C2=C(c3cn(C4CCN(Cc5ccccn5)CC4)c4ccccc34)C(=O)NC2=O)c2ccccc21` it is 753 s.
`Cn1cc2c3c(cccc31)CN(C(=O)c1ccccc1F)CC2` had an RP-LC retention time of 875 s.
The figure for `CCCCS(=O)(=O)N1CCN(c2nc(N3CCOCC3)nc(-n3ccnc3)n2)CC1` is 604 s.
In turn, `Cc1cc(C)n2c(Nc3cccc(C(F)(F)F)c3)c(-c3ccc(O)cc3)nc2n1` had an RP-LC retention time of 697 s.
The figure for `CCOc1cc(=O)n2c(c1C(=O)Nc1cc(F)ccc1F)CCCC2` is 748 s; for `CCCN1CCCCc2cc(C(=O)NC3CCS(=O)(=O)C3)sc21` (stereo not given) it is 884 s.
The figure for `CCOc1ccc(-c2ccnc3c(C(=O)Nc4cc(C)cc(C)c4)cnn23)cc1` is 1320 s; for `CCNS(=O)(=O)c1cccnc1Nc1cccc(F)c1` it is 963 s; for `COc1cccc(CNC(=O)CSc2nccnc2N2CCSCC2)c1OC` it is 824 s.
Next, `CC1CCN(C(=O)CCC(=O)N2CCCN(c3nc4cccnc4s3)CC2)CC1`: 698 s; `CCN1C(SCC(=O)Nc2c(C)cc(C)cc2C)=NS(=O)(=O)c2ccccc21`: 788 s.
Turning to `Cc1ccc(-c2nc3ccccn3c2CCC(=O)Nc2ccc(Br)cc2C)cc1`, the RP-LC retention time turned out to be 770 s.
`O=C(NC1CCCC1)C1CCN(c2cncnc2N2CCCCC2)CC1` yielded an RP-LC retention time of 641 s.
The figure for `C#CCSc1nc2ccccc2c2nc(-c3cccnc3)nn12` is 998 s.
The figure for `CCOc1ccc(NC(=O)Cn2c(=O)cc(-c3nc(C)no3)c3ccccc32)cc1` is 862 s.
`Cc1ccc(S(=O)(=O)N2C[C@@H]3C[C@H]2C[C@@H]3NC(=O)c2ccccc2)cc1Cl` registered an RP-LC retention time of 946 s.
The figure for `Cn1nccc1-c1cccc(-c2noc(COc3ccc(Cl)cc3)n2)c1` is 1120 s; for `COc1cccc(CNC(=O)c2cc3ccncc3n2C)c1OC` it is 602 s; for `N#Cc1ccc(C(=O)NC2CC(=O)N(Cc3ccccc3)C2)cc1` (stereo not given) it is 768 s.
The figure for `CCOC(=O)C1CCN(c2cc(-c3nc(-c4ccccc4)no3)c3ccccc3n2)CC1` is 1370 s; for `COc1ccccc1NC(=O)N1CCc2nc(-c3ccccc3)ncc2C1` it is 922 s.
Next, `COc1ccc(S(=O)(=O)N2CCCC(C(=O)N(C)Cc3ccccc3)C2)cc1OC` (stereo not given): 859 s; `O=C(NCc1ccc2c(c1)OCO2)c1c(O)c2cccnc2n(-c2ccccc2)c1=O`: 1120 s.
`CCC(C)NC(=O)N1CCCN(C2=NS(=O)(=O)C(c3ccc(Cl)cc3)=C2C)CC1` (stereo not given): the RP-LC retention time was 825 s.
Turning to `COC(=O)C1=CN(c2cc(Cl)c(OC)cc2OC)c2ccc(F)cc2S1(=O)=O`, the RP-LC retention time is 914 s.
Take `COCC1CCN(C(=O)CCC2CCN(c3cc(NC4CC4)ncn3)CC2)CC1`: the RP-LC retention time is 636 s.
Next, `CCOc1ccc(-c2nc(-c3ccc4c(c3)oc(=O)n4C(C)C)no2)cc1`: 1230 s; `O=S(=O)(c1cc(-c2nnc(C3CC3)o2)co1)N1CCOCC1`: 730 s; `CCCCS(=O)(=O)N1CCc2nc(-c3ccc(Cl)cc3)ncc2C1`: 1130 s.
On to `CCCOc1nccnc1NC1CCN(C(=O)c2ccsc2)CC1`, for which the RP-LC retention time stood at 713 s.
As for `O=C(NC1CCCC1)C1CCCN(c2ccc(=O)n(-c3ccc(F)cc3)n2)C1` (stereo not given), the RP-LC retention time amounted to 763 s.
Take `CCC(C)C(NC(=O)c1cccc(OC)c1)C(=O)Nc1nc2ccccc2[nH]1` (stereo not given): the RP-LC retention time was 726 s.
Next, `COc1ccc(Cl)cc1C(=O)N1CCN(c2cc(C)nc(N3CCCC3)n2)CC1`: 665 s.
The figure for `Cc1cc(C)n(CCNS(C)(=O)=O)n1` is 534 s; for `CN(C)c1ccc(/C=C2\C=Cc3ccccc32)cc1` it is 1240 s.
`CCN(CC)C(=O)c1cccnc1` registered an RP-LC retention time of 627 s.
Turning to `CCOC(=O)C1=C(CN2CCN(c3ccccn3)CC2)NC(=O)NC1c1cccs1` (stereo not given), the RP-LC retention time turned out to be 919 s.
Next, `Cc1ccc(-n2c(=O)n(CC(=O)N3CCCCC3)c3cccnc32)cc1`: 780 s.
The figure for `O=C(Cc1nnc(-c2ccc3ncccc3c2)o1)NCc1ccccc1Cl` is 711 s.
The figure for `O=C(Cc1csc(-c2ccccc2)n1)Nc1nc(-c2ccc(F)cc2)cs1` is 1140 s.
For `CCOC(=O)C1=C(C)NC2=C(C(=O)C(C(=O)OC)C(C)C2)C1c1cccc(Cl)c1` (stereo not given), the RP-LC retention time came out at 965 s.
As to `O=C(NCc1ccco1)C1CCN(c2nc3ccc(-c4cccnc4)nc3s2)CC1`, the RP-LC retention time amounted to 644 s.
`Cc1nc(Cn2cccc2C(=O)Nc2cccc(C)c2C)no1` registered an RP-LC retention time of 821 s.
In turn, `O=C(c1ccccn1)N1CCC(Oc2cc(N3CCCCC3)ncn2)C1` (stereo not given) came in with an RP-LC retention time of 686 s.
Next, `COc1ccc(OC)c(S(=O)(=O)N2CCCC(C(=O)Nc3cccc(C)c3)C2)c1` (stereo not given): 952 s.
Next, `CC(=O)N(C)CCc1noc(-c2ccc(C(=O)NCCC(C)C)cc2)n1`: 733 s; `Cc1ccccc1CNC(=O)C1CCN(Cc2cn(C)c3ccc(Cl)cc23)CC1`: 740 s; `CN1C(=O)c2ccccc2Oc2ccc(C(=O)NCc3cccs3)cc21`: 847 s.
Regarding `O=C(NCC(c1ccsc1)N1CCc2ccccc2C1)c1cccs1` (stereo not given), the RP-LC retention time was 569 s.
The compound `CCOC(=O)C1CCN(C(=O)c2ccc(-c3csc(C4CC4)n3)cc2)CC1` registered an RP-LC retention time of 961 s.
Next, `Cc1cc(C(=O)N2CCCCC2c2nncn2CC2CC2)nn1C` (stereo not given): 629 s; `Cn1cnc2ccc(-c3noc(CCc4c[nH]c5ccccc45)n3)cc21`: 731 s.
With `COC[C@@H]1CN(C(=O)c2occc2C)C[C@H]1c1nc(C2CC2)no1`, the RP-LC retention time worked out at 816 s.
`Cc1ccccc1CC(=O)NC1CCN(c2ccc(F)cc2)C1=O` (stereo not given): the RP-LC retention time is 810 s.
Next, `Cc1ccc(C)c(OCc2nc(CC(=O)Nc3nc(-c4ccc(F)cc4)c(C)s3)cs2)c1`: 1310 s; `O=C(Cc1cccs1)N1CCc2[nH]cnc2C1c1ccccc1` (stereo not given): 612 s.
The figure for `CCNC(=O)C1CCCN(c2nc3ncn(CC(=O)Nc4cc(C)ccc4C)c(=O)c3s2)C1` (stereo not given) is 673 s.
In turn, `CCCCNC(=O)c1ccccc1NC(=O)C1CCN(C(=O)C(C)(C)C)CC1` gave an RP-LC retention time of 874 s.
`CCC(=O)NC(C)c1nc(-c2ccc(C)cc2)no1` (stereo not given) yielded an RP-LC retention time of 777 s.
`CNC(=O)Nc1ccc(OC)c(NC(=O)NC(=O)c2cc(F)c(F)cc2Cl)c1` gave an RP-LC retention time of 784 s.
The figure for `COc1ccc2nc(NC(=O)Cn3nc(C(=O)N4CCOCC4)c4ccccc43)sc2c1` is 761 s.
